Results published in US20230167073A1 (Teijin Pharma Limited, priority 2020, published 2023).

Biological target: T1, Human TRPC6 (Homo sapiens, UniProt Q9Y210)
T1 construct: expressed in transfected cells
T1 sequence (Q9Y210 1-931): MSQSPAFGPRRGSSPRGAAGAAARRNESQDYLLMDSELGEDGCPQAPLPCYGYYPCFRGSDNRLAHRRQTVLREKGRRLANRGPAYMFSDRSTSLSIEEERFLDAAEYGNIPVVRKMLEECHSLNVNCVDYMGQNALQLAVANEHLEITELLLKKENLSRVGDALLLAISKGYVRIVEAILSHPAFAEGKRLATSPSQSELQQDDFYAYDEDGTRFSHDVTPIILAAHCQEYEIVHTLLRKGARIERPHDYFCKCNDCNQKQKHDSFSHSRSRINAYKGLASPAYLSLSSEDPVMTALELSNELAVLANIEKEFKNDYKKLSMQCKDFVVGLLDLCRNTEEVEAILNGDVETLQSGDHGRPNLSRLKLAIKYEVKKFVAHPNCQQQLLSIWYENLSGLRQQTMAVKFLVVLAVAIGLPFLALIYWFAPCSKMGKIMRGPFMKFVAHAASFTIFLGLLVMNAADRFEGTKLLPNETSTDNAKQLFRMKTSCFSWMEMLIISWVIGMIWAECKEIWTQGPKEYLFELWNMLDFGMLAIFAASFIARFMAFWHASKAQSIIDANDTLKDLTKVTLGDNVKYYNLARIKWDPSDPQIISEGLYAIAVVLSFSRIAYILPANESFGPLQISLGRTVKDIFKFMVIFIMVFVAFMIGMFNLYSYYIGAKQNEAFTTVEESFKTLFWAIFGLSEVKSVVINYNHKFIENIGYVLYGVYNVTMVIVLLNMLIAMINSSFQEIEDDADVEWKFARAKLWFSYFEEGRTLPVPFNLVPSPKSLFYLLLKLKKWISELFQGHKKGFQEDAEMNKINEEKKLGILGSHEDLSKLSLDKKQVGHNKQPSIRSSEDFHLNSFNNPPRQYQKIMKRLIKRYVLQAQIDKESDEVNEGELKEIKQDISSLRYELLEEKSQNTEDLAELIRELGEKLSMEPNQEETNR
Assay: Evaluation of TRPC6 channel inhibitory activity (1), FLIPR Calcium 5 Assay Kit, OAG stimulation (Compound Nos. 1-1293)
Format: cell-based
Details: not given
Method in brief: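 Calcium influx read by FLIPR fluorescence in cells stably expressing human TRPC6, dye-loaded 30 min. Compounds preincubated 20 min, then OAG stimulation at 30 μM final. Inhibition fitted by four-parameter logistic regression to give pIC50, reported as +/++/+++ categories.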

Row | SMILES | IC50
1 | Cc1cc(Oc2cc(C#N)ccc2-c2ncc(CN)cn2)cc(N2C3CCC2CC3)n1 [compound 826, 4-[5-(aminomethyl)pyrimidin-2-yl]-3-[2-(7-azabicyclo[2.2.1]heptan-7-yl)-6-methylpyridin-4-yl]oxybenzonitrile] | < 10 nM
2 | Cc1cc(Oc2cc(C#N)ccc2-c2ncc(CCN)cn2)cc(N2C3CCC2CC3)n1 [compound 827, 4-[5-(2-aminoethyl)pyrimidin-2-yl]-3-[2-(7-azabicyclo[2.2.1]heptan-7-yl)-6-methylpyridin-4-yl]oxybenzonitrile] | < 10 nM

Same assay, conditions: Human TRPC6 stably-expressing cells, OAG 30 μM, FLIPR Calcium 5 Assay Kit; read-out: Inhibitory activity (pIC50 class) (converted)

Row | SMILES | IC50
3 | COCCN(C)c1cc(Oc2cc(C#N)ccc2-c2ccc(CN)cn2)n(C)n1 [compound 799, 4-[5-(aminomethyl)pyridin-2-yl]-3-[5-[2-methoxyethyl(methyl)amino]-2-methylpyrazol-3-yl]oxybenzonitrile] | < 10 nM
4 | COCCCN(C)c1cc(Oc2cc(C#N)ccc2-c2ncc(CCN)cn2)n(C)n1 [compound 800, 4-[5-(2-aminoethyl)pyrimidin-2-yl]-3-[5-[3-methoxypropyl(methyl)amino]-2-methylpyrazol-3-yl]oxybenzonitrile] | 10 to 1000 nM
5 | Cc1nn(CC(C)C)cc1Oc1cc(C#N)ccc1-c1ncc(CCN)cn1 [compound 801, 4-[5-(2-aminoethyl)pyrimidin-2-yl]-3-[3-methyl-1-(2-methylpropyl)pyrazol-4-yl]oxybenzonitrile] | < 10 nM
6 | Cc1nn(CC(C)C)cc1Oc1cc(C#N)ccc1-c1ncc(CN)cn1 [compound 802, 4-[5-(aminomethyl)pyrimidin-2-yl]-3-[3-methyl-1-(2-methylpropyl)pyrazol-4-yl]oxybenzonitrile] | < 10 nM
7 | Cc1nn(C(C)C)cc1Oc1cc(C#N)ccc1-c1ncc(CCN)cn1 [compound 803, 4-[5-(2-aminoethyl)pyrimidin-2-yl]-3-(3-methyl-1-propan-2-ylpyrazol-4-yl)oxybenzonitrile] | < 10 nM
8 | Cc1c(Oc2cc(C#N)ccc2-c2ncc(CCN)cn2)cnn1CC(C)C [compound 804, 4-[5-(2-aminoethyl)pyrimidin-2-yl]-3-[5-methyl-1-(2-methylpropyl)pyrazol-4-yl]oxybenzonitrile] | 10 to 1000 nM
9 | Cc1c(Oc2cc(C#N)ccc2-c2ncc(CN)cn2)cnn1CC(C)C [compound 805, 4-[5-(aminomethyl)pyrimidin-2-yl]-3-[5-methyl-1-(2-methylpropyl)pyrazol-4-yl]oxybenzonitrile] | 10 to 1000 nM
10 | Cc1c(Oc2cc(C#N)ccc2-c2ncc(CCN)cn2)cnn1C(C)C [compound 806, 4-[5-(2-aminoethyl)pyrimidin-2-yl]-3-(5-methyl-1-propan-2-ylpyrazol-4-yl)oxybenzonitrile] | 10 to 1000 nM
11 | N#Cc1ccc(-c2ccc(CCN)cc2)c(Oc2sc(-c3ccccc3)nc2C#N)c1 [compound 807, 5-[2-[4-(2-aminoethyl)phenyl]-5-cyanophenoxy]-2-phenyl-1,3-thiazole-4-carbonitrile] | 10 to 1000 nM
12 | C[C@@H](N)c1cnc(-c2ccc(C#N)cc2Oc2cc(-c3ccccn3)nn2C)nc1 [compound 808, 4-[5-[(1R)-1-aminoethyl]pyrimidin-2-yl]-3-(2-methyl-5-pyridin-2-ylpyrazol-3-yl)oxybenzonitrile] | < 10 nM
13 | C[C@H](N)c1cnc(-c2ccc(C#N)cc2Oc2cc(-c3ccccn3)nn2C)nc1 [compound 809, 4-[5-[(1S)-1-aminoethyl]pyrimidin-2-yl]-3-(2-methyl-5-pyridin-2-ylpyrazol-3-yl)oxybenzonitrile] | < 10 nM
14 | Cn1nc(C(F)(F)F)cc1Oc1cc(C#N)ccc1-c1ccc(CN)cn1 [compound 810, 4-[5-(aminomethyl)pyridin-2-yl]-3-[2-methyl-5-(trifluoromethyl)pyrazol-3-yl]oxybenzonitrile] | < 10 nM

Second part, the compound after the results:

Row | IC50 | SMILES
15 | < 10 nM | Cn1nc(C(F)(F)F)cc1Oc1cc(C#N)ccc1-c1ncc(CCN)cn1 [compound 812, 4-[5-(2-aminoethyl)pyrimidin-2-yl]-3-[2-methyl-5-(tritluoromethyl)pyrazol-3-yl]oxybenzonitrile]
16 | > 1000 nM | CC(C)c1nc(Oc2cc(C#N)ccc2-c2ncc(CCN)cn2)n(C)n1 [compound 813, 4-[5-(2-aminoethyl)pyrimidin-2-yl]-3-[(2-methyl-5-propan-2-yl-1,2,4-triazol-3-yl)oxy]benzonitrile]
17 | > 1000 nM | CC(C)c1nc(Oc2cc(C#N)ccc2-c2ncc(CN)cn2)n(C)n1 [compound 814, 4-[5-(aminomethyl)pyrimidin-2-yl]-3-[(2-methyl-5-propan-2-yl-1,2,4-triazol-3-yl)oxy]benzonitrile]
18 | 10 to 1000 nM | N#Cc1ccc(-c2ncc(CN)cn2)c(Oc2cc(N3CCCCC3)nnc2Cl)c1 [compound 815, 4-[5-(aminomethyl)pyrimidin-2-yl]-3-(3-chloro-6-piperidin-1-ylpyridazin-4-yl)oxybenzonitrile]
19 | > 1000 nM | N#Cc1ccc(-c2ncc(CN)cn2)c(Oc2cc(Cl)nnc2N2CCCCC2)c1 [compound 816, 4-[5-(aminomethyl)pyrimidin-2-yl]-3-(6-chloro-3-piperidin-1-ylpyridazin-4-yl)oxybenzonitrile]
20 | > 1000 nM | N#Cc1ccc(-c2ncc(CN)cn2)c(Oc2cnnc(-c3ccccn3)c2)c1 [compound 817, 4-[5-(aminomethyl)pyrimidin-2-yl]-3-(6-pyridin-2-ylpyridazin-4 yl)oxybenzonitrile]
21 | 10 to 1000 nM | N#Cc1ccc(-c2ncc(CN)cn2)c(Oc2cnnc(OC3CCCC3)c2)c1 [compound 818, 4-[5-(aminomethyl)pyrimidin-2-yl]-3-(6-cyclopentyloxypyridazin-4-yl)oxybenzonitrile]
22 | 10 to 1000 nM | CC(C)COc1cc(Oc2cc(C#N)ccc2-c2ncc(CN)cn2)cnn1 [compound 819, 4-[5-(aminomethyl)pyrimidin-2-yl]-3-[6-(2-methylpropoxy)pyridazin-4-yl]oxybenzonitrile]
23 | > 1000 nM | N#Cc1ccc(-c2ncc(CN)cn2)c(Oc2cnnc(-n3ccccc3=O)c2)c1 [compound 820, 4-[5-(aminomethyl)pyrimidin-2-yl]-3-[6-(2-oxopyridin-1-yl)pyridazin-4-yl]oxybenzonitrile]
24 | 10 to 1000 nM | Cc1nnc(N2CCCCC2)cc1Oc1cc(C#N)ccc1-c1ncc(CN)cn1 [compound 821, 4-[5-(aminomethyl)pyrimidin-2-yl]-3-(3-methyl-6-piperidin-1-ylpyridazin-4-yl)oxybenzonitrile]
25 | < 10 nM | CN(CCF)c1cc(Oc2cc(C#N)ccc2-c2ncc(CCN)cn2)n(C)n1 [compound 822, 4-[5-(2-aminoethyl)pyrimidin-2-yl]-3-[5-[2-fluoroethyl(methyl)amino]-2-methylpyrazol-3-yl]oxybenzonitrile]
26 | < 10 nM | Cn1nc(N(CCF)CCF)cc1Oc1cc(C#N)ccc1-c1ncc(CCN)cn1 [compound 823, 4-[5-(2-aminoethyl)pyrimidin-2-yl]-3-[5-[bis(2-fluoroethyl)amino]-2-methylpyrazol-3-yl]oxybenzonitrile]
27 | 10 to 1000 nM | Cc1nnc(N2CCCC2)cc1Oc1cc(C#N)ccc1-c1ncc(CN)cn1 [compound 824, 4-[5-(aminomethyl)pyrimidin-2-yl]-3-(3-methyl-6-pyrrolidin-1-ylpyridazin-4-yl)oxybenzonitrile]
28 | 10 to 1000 nM | Cc1nnc(N2CCOCC2)cc1Oc1cc(C#N)ccc1-c1ncc(CN)cn1 [compound 825, 4-[5-(aminomethyl)pyrimidin-2-yl]-3-(3-methyl-6-morpholin-4-ylpyridazin-4-yl)oxybenzonitrile]
29 | < 10 nM | Cn1nc(C(F)F)cc1Oc1cc(C#N)ccc1-c1ccc(CN)cn1 [compound 828, 4-[5-(aminomethyl)pyridin-2-yl]-3-[5-(difluoromethyl)-2-methylpyrazol-3-yl]oxybenzonitrile]
30 | 10 to 1000 nM | Cn1nc(C(F)F)cc1Oc1cc(C#N)ccc1-c1ncc(CN)cn1 [compound 829, 4-[5-(aminomethyl)pyrimidin-2-yl]-3-[5-(difluoromethyl)-2-methylpyrazol-3-yl]oxybenzonitrile]
31 | 10 to 1000 nM | Cc1c(Oc2cc(C#N)ccc2-c2ncc(CCN)cn2)cnn1-c1ccccn1 [compound 830, 4-[5-(2-aminoethyl)pyrimidin-2-yl]-3-(5-methyl-1-pyridin-2-ylpyrazol-4-yl)oxybenzonitrile]
32 | > 1000 nM | Cc1c(Oc2cc(C#N)ccc2-c2ncc(CN)cn2)cnn1-c1ccccn1 [compound 831, 4-[5-(aminomethyl)pyrimidin-2-yl]-3-(5-methyl-1-pyridin-2-ylpyrazol-4-yl)oxybenzonitrile]
